Assay results: ChEMBL document CHEMBL2385055, “Optimization of a 1,5-dihydrobenzo[b][1,4]diazepine-2,4-dione series of HIV capsid assembly inhibitors 2: structure-activity relationships (SAR) of the C3-phenyl moiety” (Bioorg Med Chem Lett, 2013)
pEC50, pIC50: −log10 of the molar value.

Experiments:
[1] = Half life in human liver microsomes; assay type: ADME, Microsome
[2] = Permeability across human Caco2 cells; assay type: ADME, cell-based; settings: Caco-2, read-out: permeability
[3] = Half life in rat liver microsomes; assay type: ADME, Microsome
Cytochrome P450 3A4 = Cytochrome P450 3A4 (Homo sapiens, UniProt P08684); experiment: Inhibition of CYP3A4 (unknown origin); assay type: ADME
Sequence of Cytochrome P450 3A4 (P08684 whole entry): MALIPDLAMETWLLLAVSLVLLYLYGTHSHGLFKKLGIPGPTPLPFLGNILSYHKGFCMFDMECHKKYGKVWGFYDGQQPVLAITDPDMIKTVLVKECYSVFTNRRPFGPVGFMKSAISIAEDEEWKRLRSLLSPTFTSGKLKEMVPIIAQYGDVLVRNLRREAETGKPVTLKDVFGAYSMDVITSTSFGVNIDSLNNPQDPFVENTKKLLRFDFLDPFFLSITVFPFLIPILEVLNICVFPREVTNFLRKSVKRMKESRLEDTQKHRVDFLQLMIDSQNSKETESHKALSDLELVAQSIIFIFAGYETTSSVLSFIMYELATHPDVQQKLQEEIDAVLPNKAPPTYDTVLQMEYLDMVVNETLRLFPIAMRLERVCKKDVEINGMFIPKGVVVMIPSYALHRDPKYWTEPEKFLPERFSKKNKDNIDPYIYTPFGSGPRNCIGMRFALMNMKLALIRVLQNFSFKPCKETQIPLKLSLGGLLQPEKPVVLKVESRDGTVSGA

Cytochrome P450 2D6 = Cytochrome P450 2D6 (Homo sapiens, UniProt P10635); experiment: Inhibition of CYP2D6 (unknown origin); assay type: ADME
Sequence of Cytochrome P450 2D6 (P10635 whole entry): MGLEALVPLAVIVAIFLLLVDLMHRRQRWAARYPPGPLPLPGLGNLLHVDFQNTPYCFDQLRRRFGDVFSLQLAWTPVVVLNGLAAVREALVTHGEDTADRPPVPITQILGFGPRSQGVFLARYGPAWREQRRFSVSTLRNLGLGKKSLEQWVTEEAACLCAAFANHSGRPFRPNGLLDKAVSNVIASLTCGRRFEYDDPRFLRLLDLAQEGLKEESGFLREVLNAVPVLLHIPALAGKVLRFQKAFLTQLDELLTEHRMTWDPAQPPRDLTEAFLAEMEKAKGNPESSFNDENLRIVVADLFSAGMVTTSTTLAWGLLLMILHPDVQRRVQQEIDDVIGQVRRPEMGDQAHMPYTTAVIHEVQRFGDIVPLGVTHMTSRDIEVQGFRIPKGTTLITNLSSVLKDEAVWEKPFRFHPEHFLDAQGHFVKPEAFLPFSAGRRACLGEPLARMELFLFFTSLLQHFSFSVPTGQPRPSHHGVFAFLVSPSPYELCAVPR

[4] = Induction of HIV1 NL4-3 nucleocapsid protein disassembly expressed in expressed in Escherichia coli BL21 (DE3) using 5'-end fluorescein labeled (TG)25 oligonucleotide after 2 hrs by fluorescence assay; set-up: species or system Human immunodeficiency virus 1
[5] = test system: Human immunodeficiency virus 1; experiment: Antiviral activity against HIV1 infected in human C8166 cells assessed as inhibition of viral replication after 2 days by luciferase assay; assay type: functional, organism-based; settings: Human immunodeficiency virus 1, C8166, 48 h
[6] = Cytotoxicity against human C8166 cells; assay type: cell-based
[7] = Inhibition of HIV1 NL4-3 nucleocapsid protein assembly expressed in expressed in Escherichia coli BL21 (DE3) using 5'-end fluorescein labeled (TG)25 oligonucleotide after 2 hrs by fluorescence assay; set-up: species or system Human immunodeficiency virus 1
Rattus norvegicus = experiment: Total clearance in iv dosed rat relative to liver blood perfusion rate; assay type: ADME, organism-based; settings: in vivo
[8] = Half life in iv dosed rat; assay type: ADME, organism-based; settings: in vivo
[9] = Volume of distribution at steady state in iv dosed rat; assay type: ADME, organism-based; settings: in vivo, read-out: Vdss

CCN1C(=O)C(c2cc(-c3cn[nH]c3)c(O)cc2O)C(=O)N(c2ccccc2)c2cc(C(F)(F)F)ccc21 (stereo not given)
half-life [1]: > 5 h | Papp [2]: < 0.1 ×10⁻⁶ cm/s | half-life [3]: 0.25 h | INH (Cytochrome P450 3A4): 4.8 µM | INH (Cytochrome P450 2D6): 8.9 µM | pIC50 [4]: 7.30 | pEC50 [5]: 6.89

CCN1C(=O)C(c2ccc(O)c(OC)c2)C(=O)N(c2ccccc2)c2cc(C(F)(F)F)ccc21 (stereo not given)
CC50 [6]: 42000 nM | pIC50 [7]: 6.23 | pIC50 [4]: 6.96 | pEC50 [5]: 6.28

CCN1C(=O)N(c2ccc(O)c(-c3cnn(C)c3)c2)C(=O)N(c2ccccc2)c2cc(C(F)(F)F)ccc21
pIC50 [4]: 6.92 | pEC50 [5]: 6.62

CCN1C(=O)C(c2cc(-c3cnn(C)c3)c(O)cc2O)C(=O)N(c2ccccc2)c2cc(C(F)(F)F)ccc21 (stereo not given)
half-life [1]: 1.85 h | Papp [2]: 7.7 ×10⁻⁶ cm/s | half-life [3]: 0.183 h | INH (Cytochrome P450 3A4): 4.5 µM | INH (Cytochrome P450 2D6): 13 µM | pIC50 [4]: 7.00 | pEC50 [5]: 6.85

COc1ccc(C2C(=O)N(C)c3ccc(C(F)(F)F)cc3N(c3ccccc3)C2=O)cc1 (stereo not given)
pIC50 [7]: 5.96 | pEC50 [5]: 5.49

CCN1C(=O)C(c2cccc(-c3ccncc3)c2)C(=O)N(c2ccccc2)c2cc(C(F)(F)F)ccc21 (stereo not given)
CC50 [6]: 17000 nM | pIC50 [7]: 6.28 | pIC50 [4]: 6.72 | pEC50 [5]: 6.10

CCN1C(=O)C(c2cccc(-c3ccnn3C)c2)C(=O)N(c2ccccc2)c2cc(C(F)(F)F)ccc21 (stereo not given)
CC50 [6]: 30000 nM | pIC50 [7]: 6.17 | pIC50 [4]: 6.52 | pEC50 [5]: 6.00

CCN1C(=O)C(c2ccccc2)C(=O)N(c2ccccc2)c2cc(C(F)(F)F)ccc21 (stereo not given)
pIC50 [7]: 6.14 | pIC50 [4]: 6.32

CCN1C(=O)C(c2ccc(O)cc2)C(=O)N(c2ccccc2)c2cc(C(F)(F)F)ccc21 (stereo not given)
pIC50 [7]: 6.40 | pIC50 [4]: 6.74 | pEC50 [5]: 6.00

CCN1C(=O)C2(CCc3cc(O)c(-c4cnn(C)c4)cc32)C(=O)N(c2ccccc2)c2cc(C(F)(F)F)ccc21 (stereo not given)
pIC50 [4]: 6.89 | pEC50 [5]: 6.52

CCN1C(=O)C(c2cccc(-c3cccnc3)c2)C(=O)N(c2ccccc2)c2cc(C(F)(F)F)ccc21 (stereo not given)
CC50 [6]: 20000 nM | pIC50 [7]: 6.32 | pEC50 [5]: 6.00

COc1ccccc1C1C(=O)N(C)c2ccc(C(F)(F)F)cc2N(c2ccccc2)C1=O (stereo not given)
pIC50 [7]: 6.15 | pEC50 [5]: 5.57

COc1cccc(C2C(=O)N(C)c3ccc(C(F)(F)F)cc3N(c3ccccc3)C2=O)c1 (stereo not given)
pIC50 [7]: 6.26 | pEC50 [5]: 5.92

CCN1C(=O)C(c2ccc(-c3cnco3)cc2)C(=O)N(c2ccccc2)c2cc(C(F)(F)F)ccc21 (stereo not given)
CC50 [6]: > 7000 nM | pIC50 [7]: 6.12 | pIC50 [4]: 6.33 | pEC50 [5]: 5.96

CCN1C(=O)C(c2ccc(O)c(-c3cnn(C)c3)c2)C(=O)N(c2ccccc2)c2cc(C(F)(F)F)ccc21 (stereo not given)
half-life [1]: 2 h | Papp [2]: < 0.1 ×10⁻⁶ cm/s | INH (Cytochrome P450 3A4): 5.7 µM | INH (Cytochrome P450 2D6): > 30 µM | pIC50 [4]: 6.92 | pEC50 [5]: 6.72

CCN1C(=O)C(c2ccc(-c3ccncc3)cc2)C(=O)N(c2ccccc2)c2cc(C(F)(F)F)ccc21 (stereo not given)
CC50 [6]: 15000 nM | pIC50 [7]: 6.41 | pIC50 [4]: 6.68 | pEC50 [5]: 6.24

CCN1C(=O)C(c2ccccc2-c2ccncc2)C(=O)N(c2ccccc2)c2cc(C(F)(F)F)ccc21 (stereo not given)
pIC50 [7]: < 5.14

CCN1C(=O)C(c2ccc(-c3cccnc3)cc2)C(=O)N(c2ccccc2)c2cc(C(F)(F)F)ccc21 (stereo not given)
CC50 [6]: 7000 nM | pIC50 [7]: 6.40 | pIC50 [4]: 6.49 | pEC50 [5]: 6.40

CCN1C(=O)C(c2cc(-c3cnn(C)c3)ccc2O)C(=O)N(c2ccccc2)c2cc(C(F)(F)F)ccc21 (stereo not given)
half-life [1]: 2.5 h | Papp [2]: 4.3 ×10⁻⁶ cm/s | INH (Cytochrome P450 3A4): 1.7 µM | INH (Cytochrome P450 2D6): > 30 µM | pIC50 [4]: 6.77 | pEC50 [5]: 6.74

CN1C(=O)C(c2ccccc2)C(=O)N(c2ccccc2)c2cc(C(F)(F)F)ccc21 (stereo not given)
pIC50 [4]: 6.17

CCN1C(=O)C(c2cccc(-c3cnn(C)c3)c2)C(=O)N(c2ccccc2)c2cc(C(F)(F)F)ccc21 (stereo not given)
CC50 [6]: 20000 nM | pIC50 [7]: 6.20 | pIC50 [4]: 6.89 | pEC50 [5]: 6.15

CCN1C(=O)C(c2ccc(-c3cnc(OC)nc3)cc2)C(=O)N(c2ccccc2)c2cc(C(F)(F)F)ccc21 (stereo not given)
CC50 [6]: > 20000 nM | pIC50 [7]: 6.35 | pIC50 [4]: 6.57 | pEC50 [5]: 6.21

CCCn1cc(-c2cc(C3C(=O)N(CC)c4ccc(C(F)(F)F)cc4N(c4ccccc4)C3=O)cc(OC)c2O)cn1 (stereo not given)
half-life [1]: 1.43 h | Papp [2]: 9.9 ×10⁻⁶ cm/s | half-life [3]: 1.12 h | CL (Rattus norvegicus): 50% | half-life [8]: 4.8 h | INH (Cytochrome P450 3A4): 3.6 µM | INH (Cytochrome P450 2D6): > 30 µM | Vd [9]: 15 L/kg | pIC50 [4]: 6.80 | pEC50 [5]: 7.15

CCN1C(=O)C2(CCc3c2ccc(O)c3-c2cnn(C)c2)C(=O)N(c2ccccc2)c2cc(C(F)(F)F)ccc21 (stereo not given)
pIC50 [4]: 6.70 | pEC50 [5]: 6.11
